Experiments:
potassium arsenate = compound: O=[As]([O-])(O)O.[K+] [potassium arsenate]; test: thermal stability z-score vs DMSO; higher = more thermally stabilized by treatment; conditions: HeLa; arsenate concentration 1 mM
Description: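 Cellular thermal proteome profiling in HeLa cells treated with 1 mM arsenate for 1 h (DMSO pretreatment), heated to ten temperatures (37-66.3 °C). Soluble protein was quantified by TMT mass spectrometry relative to DMSO controls; the thermal stability score was transformed to a z-score; mean of n = 3 experiments.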

lipoamide = compound: NC(=O)CCCCC1CCSS1 [lipoamide]; test: as above; conditions: HeLa, lipoamide concentration 100 µM
Description: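 Cellular thermal proteome profiling in HeLa cells. Cells were treated with 100 µM lipoamide for 1 h, with or without 1 mM arsenate for a further 1 h, then heated to ten temperatures (37-66.3 °C), and soluble protein was quantified by TMT mass spectrometry relative to 0.1% DMSO controls. The thermal stability score (sum of log2 fold changes minus the abundance score) was transformed to a z-score; mean of n = 3 experiments.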

[1] = arsenate co-treatment: 1 mM arsenate 1 h
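Note: each temperature applied for 3 min, abundance score taken as mean log2 fold change at the two lowest temperatures, z-score obtained by mean subtraction and division by SD.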

UniProt P25788, sequence (P25788 whole entry): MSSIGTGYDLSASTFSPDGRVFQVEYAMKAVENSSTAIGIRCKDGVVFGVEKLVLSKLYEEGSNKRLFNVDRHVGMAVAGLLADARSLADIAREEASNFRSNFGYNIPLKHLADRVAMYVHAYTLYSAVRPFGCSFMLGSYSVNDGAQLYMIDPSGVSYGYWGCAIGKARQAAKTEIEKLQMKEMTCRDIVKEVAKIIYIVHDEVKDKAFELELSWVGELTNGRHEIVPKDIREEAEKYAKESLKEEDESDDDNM
UniProt P62699, sequence (P62699 whole entry): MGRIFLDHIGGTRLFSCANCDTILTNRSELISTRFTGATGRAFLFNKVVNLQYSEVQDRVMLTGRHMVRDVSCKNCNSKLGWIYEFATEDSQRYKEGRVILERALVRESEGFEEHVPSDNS
UniProt Q8NDH3, sequence (Q8NDH3 whole entry): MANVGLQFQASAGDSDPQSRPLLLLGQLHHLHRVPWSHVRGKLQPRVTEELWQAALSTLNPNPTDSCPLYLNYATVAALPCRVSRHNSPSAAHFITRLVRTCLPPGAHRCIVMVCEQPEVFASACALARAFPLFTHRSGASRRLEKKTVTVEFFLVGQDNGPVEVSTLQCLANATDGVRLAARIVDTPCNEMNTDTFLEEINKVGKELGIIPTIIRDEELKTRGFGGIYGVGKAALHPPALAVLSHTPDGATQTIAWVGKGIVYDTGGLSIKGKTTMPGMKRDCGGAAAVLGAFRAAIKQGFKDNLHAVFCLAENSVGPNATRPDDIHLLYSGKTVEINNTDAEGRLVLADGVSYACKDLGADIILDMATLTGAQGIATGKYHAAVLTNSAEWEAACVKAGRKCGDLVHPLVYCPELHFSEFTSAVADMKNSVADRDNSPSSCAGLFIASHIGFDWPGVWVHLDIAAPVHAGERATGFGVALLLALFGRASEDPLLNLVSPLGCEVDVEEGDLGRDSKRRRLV
UniProt Q7L5D6, sequence (Q7L5D6 whole entry): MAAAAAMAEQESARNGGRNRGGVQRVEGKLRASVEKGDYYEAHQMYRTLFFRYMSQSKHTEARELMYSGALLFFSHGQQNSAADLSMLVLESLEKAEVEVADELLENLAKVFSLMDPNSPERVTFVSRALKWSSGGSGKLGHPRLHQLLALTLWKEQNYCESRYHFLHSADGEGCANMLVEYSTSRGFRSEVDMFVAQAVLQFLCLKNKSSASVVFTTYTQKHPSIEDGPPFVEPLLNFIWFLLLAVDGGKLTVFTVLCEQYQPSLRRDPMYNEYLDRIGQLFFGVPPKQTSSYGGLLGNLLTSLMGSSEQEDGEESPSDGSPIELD
UniProt Q9NRN7, sequence (Q9NRN7 whole entry): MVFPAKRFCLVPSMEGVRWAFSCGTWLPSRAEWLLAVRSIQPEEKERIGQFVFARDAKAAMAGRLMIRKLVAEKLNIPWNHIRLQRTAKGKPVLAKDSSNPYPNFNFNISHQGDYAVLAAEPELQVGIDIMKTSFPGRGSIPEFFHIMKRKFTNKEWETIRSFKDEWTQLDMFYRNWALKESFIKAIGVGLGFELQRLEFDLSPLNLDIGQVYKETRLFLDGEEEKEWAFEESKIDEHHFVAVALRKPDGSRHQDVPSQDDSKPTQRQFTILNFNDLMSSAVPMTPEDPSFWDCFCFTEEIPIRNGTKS
UniProt P60891, sequence (P60891 whole entry): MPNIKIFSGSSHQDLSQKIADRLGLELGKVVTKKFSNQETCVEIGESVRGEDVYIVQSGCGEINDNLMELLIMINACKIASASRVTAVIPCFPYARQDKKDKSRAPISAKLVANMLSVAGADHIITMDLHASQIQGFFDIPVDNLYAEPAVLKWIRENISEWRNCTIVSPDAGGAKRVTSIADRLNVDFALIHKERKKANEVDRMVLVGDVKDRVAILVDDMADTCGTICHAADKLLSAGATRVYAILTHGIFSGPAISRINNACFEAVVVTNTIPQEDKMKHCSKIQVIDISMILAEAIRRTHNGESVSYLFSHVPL
UniProt Q9BWH2, sequence (Q9BWH2 whole entry): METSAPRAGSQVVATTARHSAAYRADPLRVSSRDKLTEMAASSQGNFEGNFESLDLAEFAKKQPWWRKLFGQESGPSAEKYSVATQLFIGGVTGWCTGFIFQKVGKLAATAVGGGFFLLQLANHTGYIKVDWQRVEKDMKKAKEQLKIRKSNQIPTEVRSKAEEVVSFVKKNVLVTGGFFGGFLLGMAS
UniProt Q9NZ08, sequence (Q9NZ08 whole entry): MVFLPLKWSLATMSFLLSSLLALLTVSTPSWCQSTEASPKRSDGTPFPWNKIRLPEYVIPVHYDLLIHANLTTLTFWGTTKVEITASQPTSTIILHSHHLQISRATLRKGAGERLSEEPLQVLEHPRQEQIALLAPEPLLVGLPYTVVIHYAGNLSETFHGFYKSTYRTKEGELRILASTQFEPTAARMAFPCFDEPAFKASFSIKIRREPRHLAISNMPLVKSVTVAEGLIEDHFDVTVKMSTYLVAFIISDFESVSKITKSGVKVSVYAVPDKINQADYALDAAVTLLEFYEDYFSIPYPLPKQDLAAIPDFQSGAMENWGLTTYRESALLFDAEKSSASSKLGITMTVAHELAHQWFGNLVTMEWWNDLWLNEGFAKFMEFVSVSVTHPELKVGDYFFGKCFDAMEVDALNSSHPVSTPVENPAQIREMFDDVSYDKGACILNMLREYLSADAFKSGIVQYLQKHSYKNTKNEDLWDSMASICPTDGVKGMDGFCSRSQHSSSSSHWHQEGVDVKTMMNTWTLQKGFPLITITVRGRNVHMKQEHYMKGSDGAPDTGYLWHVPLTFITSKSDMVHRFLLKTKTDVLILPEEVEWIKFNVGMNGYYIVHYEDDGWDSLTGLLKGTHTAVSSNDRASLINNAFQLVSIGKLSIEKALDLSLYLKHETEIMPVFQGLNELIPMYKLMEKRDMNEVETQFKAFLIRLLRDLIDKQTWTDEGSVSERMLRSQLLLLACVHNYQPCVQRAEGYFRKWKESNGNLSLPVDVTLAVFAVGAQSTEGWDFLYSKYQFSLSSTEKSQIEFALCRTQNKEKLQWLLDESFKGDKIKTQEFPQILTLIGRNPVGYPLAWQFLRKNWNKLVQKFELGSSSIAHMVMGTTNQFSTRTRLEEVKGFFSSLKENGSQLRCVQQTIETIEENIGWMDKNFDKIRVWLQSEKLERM
UniProt P07711, sequence (P07711 whole entry, looked up): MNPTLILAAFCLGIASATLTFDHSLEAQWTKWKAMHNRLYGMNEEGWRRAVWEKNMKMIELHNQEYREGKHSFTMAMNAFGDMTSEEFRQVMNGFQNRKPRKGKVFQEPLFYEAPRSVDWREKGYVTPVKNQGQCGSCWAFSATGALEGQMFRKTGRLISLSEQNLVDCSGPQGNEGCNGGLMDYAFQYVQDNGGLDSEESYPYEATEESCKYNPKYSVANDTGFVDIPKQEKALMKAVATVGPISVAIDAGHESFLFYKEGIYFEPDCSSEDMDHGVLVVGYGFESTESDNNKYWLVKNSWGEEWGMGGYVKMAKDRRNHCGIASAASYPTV
UniProt P28702, sequence (P28702 whole entry): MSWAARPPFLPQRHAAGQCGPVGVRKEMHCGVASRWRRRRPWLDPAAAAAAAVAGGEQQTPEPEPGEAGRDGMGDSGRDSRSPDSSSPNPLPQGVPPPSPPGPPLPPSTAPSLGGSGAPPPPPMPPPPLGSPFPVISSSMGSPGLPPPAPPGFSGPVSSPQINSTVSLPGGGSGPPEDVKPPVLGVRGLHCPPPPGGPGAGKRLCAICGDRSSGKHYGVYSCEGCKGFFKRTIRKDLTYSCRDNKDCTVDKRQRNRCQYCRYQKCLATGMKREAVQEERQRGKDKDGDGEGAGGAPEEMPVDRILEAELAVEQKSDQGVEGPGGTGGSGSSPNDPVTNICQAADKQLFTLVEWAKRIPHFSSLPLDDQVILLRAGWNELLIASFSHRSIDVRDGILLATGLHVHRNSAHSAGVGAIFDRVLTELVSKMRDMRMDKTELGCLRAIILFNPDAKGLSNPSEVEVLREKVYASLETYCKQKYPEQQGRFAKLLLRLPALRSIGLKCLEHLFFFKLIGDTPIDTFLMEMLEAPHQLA
UniProt Q6UVJ0, sequence (Q6UVJ0 whole entry): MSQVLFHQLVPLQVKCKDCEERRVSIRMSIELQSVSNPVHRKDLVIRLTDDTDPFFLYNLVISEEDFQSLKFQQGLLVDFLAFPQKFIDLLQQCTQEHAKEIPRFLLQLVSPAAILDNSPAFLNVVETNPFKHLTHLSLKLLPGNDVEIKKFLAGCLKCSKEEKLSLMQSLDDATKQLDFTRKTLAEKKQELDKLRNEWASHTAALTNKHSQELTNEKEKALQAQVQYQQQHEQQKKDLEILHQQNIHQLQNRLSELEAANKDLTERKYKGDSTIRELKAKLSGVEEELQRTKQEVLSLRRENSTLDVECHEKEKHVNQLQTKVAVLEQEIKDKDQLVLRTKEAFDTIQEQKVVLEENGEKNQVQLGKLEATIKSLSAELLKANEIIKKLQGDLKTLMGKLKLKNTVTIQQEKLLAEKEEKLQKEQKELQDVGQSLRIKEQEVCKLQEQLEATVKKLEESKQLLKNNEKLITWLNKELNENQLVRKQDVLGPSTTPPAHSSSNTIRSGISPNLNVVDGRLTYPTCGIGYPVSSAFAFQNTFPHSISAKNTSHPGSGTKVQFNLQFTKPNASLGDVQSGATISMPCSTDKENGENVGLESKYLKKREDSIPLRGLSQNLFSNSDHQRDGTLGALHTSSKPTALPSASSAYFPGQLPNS
UniProt Q9NTM9, sequence (Q9NTM9 whole entry): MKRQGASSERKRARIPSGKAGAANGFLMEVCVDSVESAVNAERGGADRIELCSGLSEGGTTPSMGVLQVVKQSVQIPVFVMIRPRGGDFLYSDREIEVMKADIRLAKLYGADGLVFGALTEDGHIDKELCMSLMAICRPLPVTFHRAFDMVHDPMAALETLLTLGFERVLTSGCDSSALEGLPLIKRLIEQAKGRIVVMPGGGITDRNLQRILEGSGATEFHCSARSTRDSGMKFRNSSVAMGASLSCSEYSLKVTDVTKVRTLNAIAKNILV
UniProt O75348, sequence (O75348 whole entry): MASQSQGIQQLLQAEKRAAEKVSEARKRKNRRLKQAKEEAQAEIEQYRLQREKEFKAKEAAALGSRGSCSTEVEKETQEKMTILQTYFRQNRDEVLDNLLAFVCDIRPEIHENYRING

Target	thermal stability z-score (potassium arsenate)	thermal stability z-score (lipoamide; [1])	thermal stability z-score (lipoamide; arsenate co-treatment: none)
GRAMD1B (UniProt Q3KR37)	-0.00294	-0.102	0.0763
NLE1 (UniProt Q9NVX2)	-2.71	0.481	0.2
IMMT (UniProt Q16891)	1.31	0.667	0.854
MRPS31 (UniProt Q92665)	-0.0848	-0.961	0.411
WDR43 (UniProt Q15061)	-0.817	-1.62	-1.02
OAT (UniProt P04181)	3.08	-0.684	-0.588
PIP4K2A (UniProt P48426)	-0.102	0.195	0.103
AGFG1 (UniProt P52594)	-0.387	-0.348	-0.424
MCU (UniProt Q8NE86)	0.57	-0.0937	0.21
GET4 (UniProt Q7L5D6)	0.752	-0.844	-0.0598
POLD1 (UniProt P28340)	-0.1	0.0404	-0.203
SLC25A3 (UniProt Q00325)	0.572	0.802	0.951
LRP8 (UniProt Q14114)	-0.43	-0.785	-0.422
SASS6 (UniProt Q6UVJ0)	-0.481	-0.579	-0.207
CPS1 (UniProt P31327)	-1.39	-0.756	0.095
LGALS3BP (UniProt Q08380)	0.946	-2.58	-2.13
POLR2A (UniProt P24928)	-0.684	0.89	0.82
TAX1BP1 (UniProt Q86VP1)	0.997	-0.152	0.411
ERAL1 (UniProt O75616)	-0.45	-0.329	-0.113
SRGAP2 (UniProt O75044)	0.309	-0.272	-0.287
UBA2 (UniProt Q9UBT2)	-0.426	-0.378	-0.166
DR1 (UniProt Q01658)	-0.043	0.466	0.257
ERAP1 (UniProt Q9NZ08)	0.97	-2.65	-2.68
SH3GL1 (UniProt Q99961)	0.538	-0.0464	0.144
FUNDC2 (UniProt Q9BWH2)	-0.587	0.0791	-0.555
FBXO2 (UniProt Q9UK22)	0.0529	-0.743	0.137
PPP1R37 (UniProt O75864)	-0.0199	-0.153	-0.186
CUTC (UniProt Q9NTM9)	-0.934	0.342	0.211

Target	thermal stability z-score (potassium arsenate)	thermal stability z-score (lipoamide; [1])	thermal stability z-score (lipoamide; arsenate co-treatment: none)
NAPRT (UniProt Q6XQN6)	-0.197	-0.379	-0.0584
SMC4 (UniProt Q9NTJ3)	0.763	0.387	1.46
RXRB (UniProt P28702)	-0.458	0.117	0.096
HMBS (UniProt P08397)	0.0804	0.513	0.573
ATP6V1G1 (UniProt O75348)	0.295	0.563	0.473
PRPS1 (UniProt P60891)	-1.1	0.0132	-0.285
INSR (UniProt P06213)	0.639	0.408	0.683
CTSL (UniProt P07711)	0.977	-0.924	-0.44
CUL1 (UniProt Q13616)	-0.108	0.708	0.275
AASDHPPT (UniProt Q9NRN7)	-0.589	0.269	0.269
PMPCB (UniProt O75439)	0.353	0.254	0.207
PSMA3 (UniProt P25788)	0.398	0.613	0.719
NAGA (UniProt P17050)	0.546	-0.786	-0.0771
HSPD1 (UniProt P10809)	-0.432	-0.0897	0.0259
CHKA (UniProt P35790)	-1.4	0.498	0.357
CCDC6 (UniProt Q16204)	-0.505	-0.497	-0.185
LAMB3 (UniProt Q13751)	0.108	-1.92	-1.59
SRPK2 (UniProt P78362)	0.168	0.467	-0.365
LLGL1 (UniProt Q15334)	-0.755	-0.455	-0.324
MRPL13 (UniProt Q9BYD1)	-0.201	-0.175	-0.451
AKT2 (UniProt P31751)	-0.0952	0.466	-0.00865
AKAP11 (UniProt Q9UKA4)	-0.0869	0.0955	0.0515
CTIF (UniProt O43310)	0.233	-0.164	0.404
MPC2 (UniProt O95563)	1.64	0.0545	-0.501
NPEPL1 (UniProt Q8NDH3)	1.2	-0.24	-0.808
YPEL5 (UniProt P62699)	-0.117	-0.116	-0.259
DLG5 (UniProt Q8TDM6)	0.0056	0.227	-0.0304

— the supplement of paper PMC12463676, “Small-molecule dissolution of stress granules by redox modulation benefits ALS models” (Nature Chemical Biology, 2025)
